Key:
A549 cells = experiment: Proliferation Assay (A549 cell viability, Cell Titer Fluor); assay type: cell-based; settings: Homo sapiens, 72 hours
Procedure, shortened: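 A549 cells seeded at 1000 cells/well, left 24 h, then exposed to compound for 72 h at 37 °C, 5% CO2, final DMSO 0.5% (v/v). Viability read by Cell Titer Fluor fluorescence; EC50 from four-parameter logistic fit.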

[1] = biological target: T1, purified recombinant human GAC (GLS1) (Homo sapiens, UniProt O94925); experiment: GLS1 Enzymatic Activity Assay (dual-coupled enzymatic assay); assay type: biochemical
T1 sequence (O94925 55-598 isoform O94925-3 limits assumed): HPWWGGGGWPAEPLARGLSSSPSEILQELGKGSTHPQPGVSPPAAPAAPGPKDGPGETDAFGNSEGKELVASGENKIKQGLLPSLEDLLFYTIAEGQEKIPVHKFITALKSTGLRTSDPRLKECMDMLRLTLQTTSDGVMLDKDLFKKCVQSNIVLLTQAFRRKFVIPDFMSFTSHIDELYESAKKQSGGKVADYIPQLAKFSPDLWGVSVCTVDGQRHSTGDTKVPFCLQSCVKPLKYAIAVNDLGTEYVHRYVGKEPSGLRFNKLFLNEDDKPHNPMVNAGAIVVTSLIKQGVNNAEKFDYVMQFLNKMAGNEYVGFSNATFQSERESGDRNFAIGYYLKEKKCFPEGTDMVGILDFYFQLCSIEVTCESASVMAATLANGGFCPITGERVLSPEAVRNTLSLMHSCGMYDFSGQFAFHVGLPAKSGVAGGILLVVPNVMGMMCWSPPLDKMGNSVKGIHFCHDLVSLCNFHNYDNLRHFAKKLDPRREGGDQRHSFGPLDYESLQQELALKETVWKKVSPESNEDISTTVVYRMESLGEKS
Procedure, shortened: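 GAC activity measured by coupling glutamate to glutamate oxidase and HRP, generating resorufin from Amplex UltraRed. Enzyme (2 nM) preincubated with 50 mM potassium phosphate 10 min at room temperature, then inhibitor 10 min; 1 mM glutamine substrate, 1% DMSO. Fluorescence 530/590 nm, kinetic or 20-min endpoint; IC50 from four-parameter logistic fit.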

EC50 (A549 cells)	IC50 [1]	Compound
500 to 5000 nM	100 to 500 nM	Cc1ccc(CNC(=O)c2cn(CCCCc3cc4cc(C5CCOCC5)[nH]c4nn3)nn2)cn1 [Example 99, N-[(6-methylpyridin-3-yl)methyl]-1-{4-[6-(oxan-4-yl)-7H-pyrrolo[2,3-c]pyridazin-3-yl]butyl}-1H-1,2,3-triazole-4-carboxamide]
100 to 500 nM	< 100 nM	Cc1ccc(CNC(=O)c2cn(CCCCc3cc4c(CCc5ccccc5)c(C5CC5)[nH]c4nn3)nn2)cn1 [Example 100, 1-{4-[6-cyclopropyl-5-(2-phenylethyl)-7H-pyrrolo[2,3-c]pyridazin-3-yl]butyl}-N-[(6-methylpyridin-3-yl)methyl]-1H-1,2,3-triazole-4-carboxamide]
100 to 500 nM	< 100 nM	O=C(NCc1ccccn1)c1cn(CCCCc2cc3c(Cc4ccc5ccccc5c4)c(C4CC4)[nH]c3nn2)nn1 [Example 101, 1-{4-[6-cyclopropyl-5-(naphthalen-2-ylmethyl)-7H-pyrrolo[2,3-c]pyridazin-3-yl]butyl}-N-(pyridin-2-ylmethyl)-1H-1,2,3-triazole-4-carboxamide]
500 to 5000 nM	< 100 nM	O=C(NCc1ccccn1)c1cn(CCCCc2cc3c(Cc4ccccc4)c(C4CC4)[nH]c3nn2)nn1 [Example 102, 1-(4-{5-benzyl-6-cyclopropyl-7H-pyrrolo[2,3-c]pyridazin-3-yl}butyl)-N-(pyridin-2-ylmethyl)-1H-1,2,3-triazole-4-carboxamide]
500 to 5000 nM	< 100 nM	N#Cc1cccc(Cc2c(C3CC3)[nH]c3nnc(CCCCn4cc(C(=O)NCc5ccccn5)nn4)cc23)c1 [Example 103, 1-(4-{5-[(3-cyanophenyl)methyl]-6-cyclopropyl-7H-pyrrolo[2,3-c]pyridazin-3-yl}butyl)-N-(pyridin-2-ylmethyl)-1H-1,2,3-triazole-4-carboxamide]
500 to 5000 nM	< 100 nM	O=C(NCc1ccccn1)c1cn(CCCCc2cc3c(Cc4ccccc4F)c(C4CC4)[nH]c3nn2)nn1 [Example 104, 1-(4-{6-cyclopropyl-5-[(2-fluorophenyl)methyl]-7H-pyrrolo[2,3-c]pyridazin-3-yl}butyl)-N-(pyridin-2-ylmethyl)-1H-1,2,3-triazole-4-carboxamide]
< 100 nM	< 100 nM	CC(C)(C)OC(=O)N1CC(c2cc3cc(CCCCn4cc(C(=O)NCc5cccc(OC(F)(F)F)c5)nn4)nnc3[nH]2)C1 [Example 105, tert-butyl 3-(3-{4-[4-({[3-(trifluoromethoxy)phenyl]methyl}carbamoyl)-1H-1,2,3-triazol-1-yl]butyl}-7H-pyrrolo[2,3-c]pyridazin-6-yl)azetidine-1-carboxylate]
100 to 500 nM	< 100 nM	O=C(NCc1ccccn1)c1cn(CCCCc2cc3c(Cc4ccc(Cl)cc4)c(C4CC4)[nH]c3nn2)nn1 [Example 106, 1-(4-{5-[(4-chlorophenyl)methyl]-6-cyclopropyl-7H-pyrrolo[2,3-c]pyridazin-3-yl}butyl)-N-(pyridin-2-ylmethyl)-1H-1,2,3-triazole-4-carboxamide]
500 to 5000 nM	100 to 500 nM	O=C(NCc1cccc(OC(F)(F)F)c1)c1cn(CCCCc2cc3cc(C4CNC4)[nH]c3nn2)nn1 [Example 107, 1-{4-[6-(azetidin-3-yl)-7H-pyrrolo[2,3-c]pyridazin-3-yl]butyl}-N-{[3-(trifluoromethoxy)phenyl]methyl}-1H-1,2,3-triazole-4-carboxamide]
100 to 500 nM	< 100 nM	O=C(NCc1ccccn1)c1cn(CCCCc2cc3c(-c4ccccc4)c(C4CC4)[nH]c3nn2)nn1 [Example 108, 1-(4-{6-cyclopropyl-5-phenyl-7H-pyrrolo[2,3-c]pyridazin-3-yl}butyl)-N-(pyridin-2-ylmethyl)-1H-1,2,3-triazole-4-carboxamide]
500 to 5000 nM	100 to 500 nM	Cc1c(C2CC2)[nH]c2nnc(CCCCn3cc(C(=O)NCc4ccccn4)nn3)cc12 [Example 109, 1-(4-(6-cyclopropyl-5-methyl-7H-pyrrolo[2,3-c]pyridazin-3-yl)butyl)-N-(pyridin-2-ylmethyl)-1H-1,2,3-triazole-4-carboxamide]
100 to 500 nM	< 100 nM	CC(C)Cc1c(C2CC2)[nH]c2nnc(CCCCn3cc(C(=O)NCc4ccccn4)nn3)cc12 [Example 110, 1-{4-[6-cyclopropyl-5-(2-methylpropyl)-7H-pyrrolo[2,3-c]pyridazin-3-yl]butyl}-N-(pyridin-2-ylmethyl)-1H-1,2,3-triazole-4-carboxamide]
< 100 nM	< 100 nM	CC(C)(C)OC(=O)N1CC(c2cc3cc(CCCCn4cc(C(=O)NCc5cc(OC(F)(F)F)ccc5F)nn4)nnc3[nH]2)C1 [Example 111, tert-butyl 3-(3-(4-(4-((2-fluoro-5-(trifluoromethoxy)benzyl)carbamoyl)-1H-1,2,3-triazol-1-yl)butyl)-7H-pyrrolo[2,3-c]pyridazin-6-yl)azetidine-1-carboxylate]
500 to 5000 nM	< 100 nM	Cc1ccc(CNC(=O)c2cn(CCCCc3cc4c(C#N)c(C5CC5)[nH]c4nn3)nn2)cn1 [Example 112, 1-(4-{5-cyano-6-cyclopropyl-7H-pyrrolo[2,3-c]pyridazin-3-yl}butyl)-N-[(6-methylpyridin-3-yl)methyl]-1H-1,2,3-triazole-4-carboxamide]
500 to 5000 nM	< 100 nM	O=C(NCc1ccccn1)c1cn(CCCCc2cc3c(-c4ccncc4)c(C4CC4)[nH]c3nn2)nn1 [Example 113, 1-{4-[6-cyclopropyl-5-(pyridin-4-yl)-7H-pyrrolo[2,3-c]pyridazin-3-yl]butyl}-N-(pyridin-2-ylmethyl)-1H-1,2,3-triazole-4-carboxamide]
500 to 5000 nM	< 100 nM	O=C(NCc1ccccn1)c1cn(CCCCc2cc3c(Cc4ccc(Cl)nc4)c(C4CC4)[nH]c3nn2)nn1 [Example 114, 1-(4-(5-((6-chloropyridin-3-yl)methyl)-6-cyclopropyl-7H-pyrrolo[2,3-c]pyridazin-3-yl)butyl)-N-(pyridin-2-ylmethyl)-1H-1,2,3-triazole-4-carboxamide 2,2,2-trifluoroacetate]
500 to 5000 nM	100 to 500 nM	CCOC(=O)c1nnc(CCCCc2cc3cc(C4CC4)[nH]c3nn2)s1 [Example 115, ethyl 5-(4-{6-cyclopropyl-7H-pyrrolo[2,3-c]pyridazin-3-yl}butyl)-1,3,4-thiadiazole-2-carboxylate]
500 to 5000 nM	< 100 nM	O=C(NCc1ccccn1)c1cn(CCCCc2cc3c(-c4cccc(Cl)c4)c(C4CC4)[nH]c3nn2)nn1 [Example 116, 1-{4-[5-(3-chlorophenyl)-6-cyclopropyl-7H-pyrrolo[2,3-c]pyridazin-3-yl]butyl}-N-(pyridin-2-ylmethyl)-1H-1,2,3-triazole-4-carboxamide]
100 to 500 nM	< 100 nM	O=C(NCc1ccccn1)c1cn(CCCCc2cc3c(-c4ccc(Cl)cc4)c(C4CC4)[nH]c3nn2)nn1 [Example 117, 1-{4-[5-(4-chlorophenyl)-6-cyclopropyl-7H-pyrrolo[2,3-c]pyridazin-3-yl]butyl}-N-(pyridin-2-ylmethyl)-1H-1,2,3-triazole-4-carboxamide]
500 to 5000 nM	< 100 nM	O=C(NCc1cc(OC(F)(F)F)ccc1F)c1cn(CCCCc2cc3cc(C4CNC4)[nH]c3nn2)nn1 [Example 118, 1-{4-[6-(azetidin-3-yl)-7H-pyrrolo[2,3-c]pyridazin-3-yl]butyl}-N-{[2-fluoro-5-(trifluoromethoxy)phenyl]methyl}-1H-1,2,3-triazole-4-carboxamide]
500 to 5000 nM	< 100 nM	CC(=O)N1CC(c2cc3cc(CCCCn4cc(C(=O)NCc5cc(OC(F)(F)F)ccc5F)nn4)nnc3[nH]2)C1 [Example 119, 1-{4-[6-(1-acetylazetidin-3-yl)-7H-pyrrolo[2,3-c]pyridazin-3-yl]butyl}-N-{[2-fluoro-5-(trifluoromethoxy)phenyl]methyl}-1H-1,2,3-triazole-4-carboxamide]
100 to 500 nM	< 100 nM	O=C(NCc1ccccn1)c1cn(CCCCc2cc3c(-c4ccccc4F)c(C4CC4)[nH]c3nn2)nn1 [Example 120, 1-{4-[6-cyclopropyl-5-(2-fluorophenyl)-7H-pyrrolo[2,3-c]pyridazin-3-yl]butyl}-N-(pyridin-2-ylmethyl)-1H-1,2,3-triazole-4-carboxamide]
100 to 500 nM	< 100 nM	COc1cccc(-c2c(C3CC3)[nH]c3nnc(CCCCn4cc(C(=O)NCc5ccccn5)nn4)cc23)c1 [Example 121, 1-{4-[6-cyclopropyl-5-(3-methoxyphenyl)-7H-pyrrolo[2,3-c]pyridazin-3-yl]butyl)-N-(pyridin-2-ylmethyl)-1H-1,2,3-triazole-4-carboxamide]
< 100 nM	< 100 nM	Cc1ccc(CNC(=O)c2cn(CCCCc3cc4c(-c5ccccc5F)c(C5CC5)[nH]c4nn3)nn2)cn1 [Example 122, 1-{4-[6-cyclopropyl-5-(2-fluorophenyl)-7H-pyrrolo[2,3-c]pyridazin-3-yl]butyl}-N-[(6-methylpyridin-3-yl)methyl]-1H-1,2,3-triazole-4-carboxamide]

Source: patent publication US20160002248A1, “GLS1 INHIBITORS FOR TREATING DISEASE” (Board of Regents, The University of Texas System, priority 2014, published 2016)
